Results published in EP4813999A1, “NOVEL PEPTIDE DERIVATIVE AND PHARMACEUTICAL COMPOSITION FOR PREVENTING OR TREATING MACULAR DEGENERATION COMPRISING SAME” (Supadelixir Inc., priority 2023, dated 2026).

Experiments:
HUVECs [1] = assay: Cytotoxicity of test substance (CCK-8 cell viability); format: cell-based, human; settings: 24, 48 and 72 hours, up to a concentration of 1,000 nM (1 µM), relative to untreated group at 24 hours
Protocol: The anti-angiogenic activity of the test substance (SE101B2L) was evaluated using HUVECs. HUVECs were cultured in CEFOgro-HUVEC basal medium (CEFO Co., Ltd.) supplemented with growth supplements containing vascular endothelial cell growth-related factors and serum (HUVEC supplements, CEFO Co., Ltd.), which was used as vascular endothelial cell growth medium (hereinafter denoted as "growth medium").
HUVECs were seeded into a 96-well plate at 5 × 10^3 cells per well together with 0.1 ml of growth medium. After incubation for one day, the cells were treated with the test substance (SE101B2L) such that the final concentration increased tenfold from 0.001 nM (denoted as log -3) to 10,000 nM (denoted as log 4). Thereafter, test groups were incubated for 24, 48, and 72 hours, and Cell Counting Kit-8 (CCK-8) was added at each predetermined time point, followed by incubation for an additional 2 hours, and absorbance was measured at 450 nm. Cell viability was calculated relative to the absorbance value of the untreated group at 24 hours.

HUVECs [2] = assay: VEGF-induced chemotactic cell migration (transwell chamber); format: cell-based, human; settings: VEGF 10 ng/ml, test substance 0.1, 1, 10, 100 nM, 3 hours
Protocol: The experiment was conducted by dividing the groups into an untreated group, a group treated with VEGF alone, and a group co-treated with VEGF and the test substance (SE101B2L).
In addition, whether the test substance could inhibit VEGF-induced changes in cell migration ability in HUVECs was confirmed. In terms of cell migration ability, changes in chemotactic cell migration were confirmed using a transwell chamber (24-well plate type). After coating the lower surface of a transwell insert membrane having a diameter of 6.5 mm and a pore size of 8.0 µm with 10 µg of gelatin, 5 × 10^4 cultured HUVECs were seeded into the inserts using 0.1 ml of HUVEC basal medium. The test substance was added to each test substance-treated group to final concentrations of 0.1, 1, 10, and 100 nM, and VEGF, together with HUVEC basal medium, was added to the lower wells configured in a 24-well plate format to a final concentration of 10 ng/ml, followed by incubation in an incubator with 5% CO2 at 37°C for 3 hours. Thereafter, the medium was removed from the inserts of the test groups, and the inserts were fixed using a 10% formalin solution. […] Migrated cells in each test group were photographed, and the number of cells was counted. The number of counted cells was converted to values relative to that of the untreated group, thereby calculating the results.

ARPE19 cells [3] = assay: Cell viability under hydrogen peroxide-induced oxidative stress (CCK-8); format: cell-based, Human; settings: 400 µM hydrogen peroxide, test substance 0.01, 0.1, 1, 2 µM, 24 hours
Protocol: (§1) Human retinal pigment epithelial cells (ARPE19) were cultured in a humidified incubator with 5% CO2 at 37°C. DMEM/F12 (Gibco) containing 10% fetal bovine serum and penicillin (100 U/ml)/streptomycin ([…]) was used as medium. The cells were cultured with the medium replaced with fresh medium every other day and were passaged using 0.25% trypsin containing 0.02% ethylenediaminetetraacetic acid (EDTA).
After oxidative stress was induced in human retinal pigment epithelial cells using hydrogen peroxide (H2O2), the test substance (SE101B2L) was added at varying concentrations to confirm changes in cell viability. CCK-8 was used to confirm cell viability.
ARPE19 cells were seeded into a 96-well plate at 1 × 10^4 cells/well and cultured in an incubator for 24 hours. The test substance was added to each treatment group at concentrations of 0, 0.01, 0.1, 1, and 2 µM, together with 400 µM hydrogen peroxide, followed by incubation for 24 hours. […] After incubation, a 96-well plate containing 90 µL of cell suspension per well was inoculated with 10 µL of ready-to-use CCK-8 solution. The plate was incubated for 2 hours, and the OD450 of the supernatant was measured to confirm cell viability through quantification.

ARPE19 cells [4] = assay: Hydrogen peroxide-induced apoptosis (phosphatidylserine / CytoCalcein Violet 450 staining); format: cell-based, Human; settings: 200 µM hydrogen peroxide, test substance 0.01, 0.1, 1 µM, 24 hours
Protocol: as §1
After apoptosis was induced in ARPE19 cells using hydrogen peroxide (H2O2), the test substance (SE101B2L) was added at varying concentrations to evaluate inhibitory effects against apoptosis. Inhibitory effects against apoptosis were measured using phosphatidylserine (PS), which is exposed on the surface of apoptotic cells.
ARPE19 cells were seeded into a 24-well microplate containing coverslips at 1 × 10^6 cells/well and cultured in an incubator with 5% CO2 at 37°C for 24 hours. When approximately 80% confluency was reached, the test substance was added to each treatment group at concentrations of 0, 0.01, 0.1, and 1 µM, together with 200 µM hydrogen peroxide, followed by incubation for 24 hours. […] Emission signals detected from each cell were measured using a digital fluorescence microscope (CELENA S digital imaging system, Logos Biosystems, Korea) to quantify apoptotic cells and live cells.

decylbenzoyl-Cys-Phe-Lys-amide [SE101B2L]
cell viability (cytotoxicity) (HUVECs [1]): no significant difference in cell viability | cell migration ability (number of migrated cells) (HUVECs [2]): reduced by the test substance in a concentration-dependent manner | cell viability (ARPE19 cells [3]): increases cell viability in a concentration-dependent manner | apoptotic cells (green) (ARPE19 cells [4]): apoptotic cells (green) decrease | live cells (blue) (ARPE19 cells [4]): live cells (blue) increase in a concentration-dependent manner
